In PubChem BioAssay (NCI) one finds GI50 and TGI data, which are given here for 24 molecules.

“And” between values parts separate entries of the source, which are not always exact repeats. Identical values can stand only once.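 Cells were grown in 96-well plates and exposed to each compound for 48 hours at five concentrations; endpoints were interpolated linearly between bracketing concentrations, or set to the highest concentration if not reached. Abbreviation: GI50, concentration required for 50% inhibition of growth. The concentration for full growth arrest is given as TGI.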

The first test concerns NCI-H23 lung. Kind of test: NCI-60 cell line screen, 48 h.
For `Nc1nccc2c1ccn2-c1ccc(NC(=O)c2ccc(N3CCOCC3)c(C(F)(F)F)c2)cc1`, the GI50 was 0.94 µM and the TGI turned out to be 17.3 µM.
The molecule `Cc1[nH]c2ccccc2c1-c1cc(-c2cc(-c3c(C)[nH]c4ccccc34)on2)no1` registered a TGI above 100 µM.
`Cn1cnc([N+](=O)[O-])c1S(=O)(=O)Oc1ccccc1`: the GI50 was 15 µM and the TGI worked out at 37.9 µM.
For `COc1cc(C2c3cc4c(cc3C(O)C(CO)C2CO)OCO4)cc(OC)c1OC` (stereo unspecified), in that order: 4.21 µM and above 100 µM.
For the molecule `CCCNC(=S)/N=C/c1c(O)c2ccccc2[nH]c1=O`, the TGI was above 100 µM.
In the case of `COc1ccc(-c2oc(=O)ccc2-c2cc(OC)c(OC)c(OC)c2)cc1F`, the GI50 was 25.9 µM and the TGI is above 100 µM.
For `O=C(c1ccc(F)c(F)c1Nc1ccc(I)cc1F)N1CC(O)([C@@H]2CCCCN2)C1`, the GI50 is < 0.0436 µM and 0.129 µM; the TGI is 10 µM and > 10 µM.
Molecule `Oc1cc(O)c2c(c1)OC(c1ccc(O)c(O)c1)C(OC1(c3cc(O)c(O)c(O)c3)Oc3cc(O)cc(O)c3C(O)C1O)C2` (stereo unspecified) displayed a TGI of 50.4 µM.
Take `COC12C=C/C(=C(/C(=O)OCc3ccncc3)C(=O)CCCCCCCCC3(OC)C=C/C(=C(/C(=O)OCc4ccncc4)C(=O)CCCCCCCC1)O3)O2`: the GI50 is 0.178 µM and the TGI was 0.762 µM.
For `CCOc1ccc2nc(S/C(=C/C=C(C#N)C#N)c3ccc(C)cc3)sc2c1` the same measures were 35.6 µM and 97.3 µM.
For `COc1cc(CNCCCN2C(=O)c3ccc4c5c(ccc(c35)C2=O)C(=O)N(CCCNCc2cc(OC)c(OC)c(OC)c2)C4=O)cc(OC)c1OC` the same measures were 0.35 µM and 1.22 µM.
For `CC(C)=CCc1cc(O)cc2c1OC(C=C(C)C)C1=C2C(=O)C2=C(NCCS2(=O)=O)C1=O` (stereo unspecified), in that order: 1.91 µM and 6.53 µM.
On to `O=c1[nH]c(=O)n(C2CC(O)C(CO)O2)cc1CO` (stereo unspecified), for which the GI50 was 31 µM and the TGI is above 100 µM.
For `Cc1nc2cnc(N)c(C#Cc3cncc(C(=O)Nc4ccc(CN5CCN(C)CC5)c(C(F)(F)F)c4)c3)c2nc1C`, in that order: 0.342 µM and 8.67 µM.
The molecule `O=C1NC(=S)NNC12c1ccccc1-c1ccccc12` displayed a TGI above 10 µM.
On the same count and under the same terms, the figure for `CC(=O)OC12c3ccccc3-c3ccccc3C1C1C(=O)N(C)C(=O)C12Cl` (stereo unspecified) is above 10 µM; for `COc1ccc(C(O)c2nccn2C)c(OC)c1` (stereo unspecified) it is above 100 µM.
Still for that read-out and setting: the figure for `C1CSCCSCCS1` is above 100 µM; for `CC1=CC(=O)[C@@H](O)[C@]2(C)[C@H]3[C@@]4(O)OC[C@]35[C@H]([C@@H](C)[C@H]4O)[C@@H](O)C(=O)O[C@@H]5C[C@@H]12` it is 1.7 µM; for `CCSc1[nH]c(Nc2nc(-c3ccccc3)n(-c3ccccc3)n2)c(C(N)=O)c1C(N)=O` it is above 10 µM.
With `COc1ccc2[nH]cc(-c3nc(-c4c[nH]c5ncccc45)cs3)c2c1`, the GI50 was 4.38 µM and the TGI was above 100 µM.
Consider `O=c1cc(-c2ccccc2)[nH]c2c(S)cccc12`, for which the TGI is above 100 µM.
The same measure, in the same setting: the figure for `N#Cc1c(-c2ccc(F)cc2)c(-c2ccc(F)cc2)nn(CCO)c1=O` is above 78.3 µM; for `CN(C)c1c([O-])c(=[N+](C)C)c1=O` it is above 100 µM.

Another test has as its system SK-MEL-2 melanoma. Nature of the test: NCI-60 cell line screen, 48 h.
`Nc1nccc2c1ccn2-c1ccc(NC(=O)c2ccc(N3CCOCC3)c(C(F)(F)F)c2)cc1`: the GI50 was 1.11 µM and the TGI was 5.49 µM.
With `Cc1[nH]c2ccccc2c1-c1cc(-c2cc(-c3c(C)[nH]c4ccccc34)on2)no1`, the TGI was above 100 µM.
Consider `Cn1cnc([N+](=O)[O-])c1S(=O)(=O)Oc1ccccc1`, for which the GI50 is 15.5 µM and the TGI turned out to be 40.9 µM.
Regarding `COc1cc(C2c3cc4c(cc3C(O)C(CO)C2CO)OCO4)cc(OC)c1OC` (stereo unspecified), the TGI was above 100 µM.
The same measure, in the same setting: under `CCCNC(=S)/N=C/c1c(O)c2ccccc2[nH]c1=O` stands above 100 µM.
Consider `COc1ccc(-c2oc(=O)ccc2-c2cc(OC)c(OC)c(OC)c2)cc1F`, for which the GI50 was 6.98 µM and the TGI was above 100 µM.
As to `O=C(c1ccc(F)c(F)c1Nc1ccc(I)cc1F)N1CC(O)([C@@H]2CCCCN2)C1`, the GI50 is < 0.013 µM and 0.0327 µM; the TGI is below 0.0268 µM.
In the case of `Oc1cc(O)c2c(c1)OC(c1ccc(O)c(O)c1)C(OC1(c3cc(O)c(O)c(O)c3)Oc3cc(O)cc(O)c3C(O)C1O)C2` (stereo unspecified), the TGI is above 69.9 µM.
In the case of `COC12C=C/C(=C(/C(=O)OCc3ccncc3)C(=O)CCCCCCCCC3(OC)C=C/C(=C(/C(=O)OCc4ccncc4)C(=O)CCCCCCCC1)O3)O2`, the GI50 was 1.08 µM and the TGI turned out to be 3.05 µM.
For `COc1cc(CNCCCN2C(=O)c3ccc4c5c(ccc(c35)C2=O)C(=O)N(CCCNCc2cc(OC)c(OC)c(OC)c2)C4=O)cc(OC)c1OC`, the GI50 is 0.562 µM and the TGI is 1.52 µM.
For `CC(C)=CCc1cc(O)cc2c1OC(C=C(C)C)C1=C2C(=O)C2=C(NCCS2(=O)=O)C1=O` (stereo unspecified), in that order: 2.85 µM and 7.13 µM.
For `O=c1[nH]c(=O)n(C2CC(O)C(CO)O2)cc1CO` (stereo unspecified), in that order: above 100 µM and above 100 µM.
`Cc1nc2cnc(N)c(C#Cc3cncc(C(=O)Nc4ccc(CN5CCN(C)CC5)c(C(F)(F)F)c4)c3)c2nc1C`: the GI50 is 0.187 µM and the TGI worked out at 0.817 µM.
Molecule `CC(=O)OC12c3ccccc3-c3ccccc3C1C1C(=O)N(C)C(=O)C12Cl` (stereo unspecified) displayed a TGI above 10 µM.
On the same count and under the same terms, the figure for `COc1ccc(C(O)c2nccn2C)c(OC)c1` (stereo unspecified) is above 100 µM; for `CC1=CC(=O)[C@@H](O)[C@]2(C)[C@H]3[C@@]4(O)OC[C@]35[C@H]([C@@H](C)[C@H]4O)[C@@H](O)C(=O)O[C@@H]5C[C@@H]12` it is 1.16 µM.
Turning to `COc1ccc2[nH]cc(-c3nc(-c4c[nH]c5ncccc45)cs3)c2c1`, the GI50 is 8.36 µM and the TGI was above 100 µM.
Regarding `CN(C)c1c([O-])c(=[N+](C)C)c1=O`, the TGI was above 100 µM.

In a further test the test system is MOLT-4 leukemia. Kind of test: NCI-60 cell line screen, 48 h.
Turning to `Nc1nccc2c1ccn2-c1ccc(NC(=O)c2ccc(N3CCOCC3)c(C(F)(F)F)c2)cc1`, the GI50 was 0.318 µM.
In the case of `Cc1[nH]c2ccccc2c1-c1cc(-c2cc(-c3c(C)[nH]c4ccccc34)on2)no1`, the TGI is above 100 µM.
